Experimental data taken from ChEMBL document CHEMBL4396911, “Recent progress in histone methyltransferase (G9a) inhibitors as anticancer agents” (Eur J Med Chem, 2019).

What was measured:
PANC-1 [1] = assay: Anticancer activity against human PANC1 cells; type: functional, cell-based
PANC-1 [2] = assay: Cytotoxicity against human PANC1 cells assessed as decrease in cell viability after 72 hrs by MTT assay; type: functional, cell-based; details: PANC-1, 72 h

Row | IC50 (PANC-1 [1]) [µM] | SMILES | IC50 (PANC-1 [2]) [µM]
1 | 5 | COC(=O)c1ccc2c(c1)nc(NC(=O)c1ccccc1)n2CCCc1ccccc1 | 
2 |  | CCN(CC)CCNC(=O)c1ccc(NCCN2C(=O)c3ccccc3C2=O)cc1 | 5
